In ChEMBL document CHEMBL1909046, “DrugMatrix in vitro pharmacology data”:

What was measured:
Vasopressin V1a receptor = Vasopressin V1a receptor (Homo sapiens, UniProt P37288); type: cell membranes, Membrane; details: hek293; note: in other assays of this panel Not Active means under 50% inhibition at 10 µM
[1] = target: Prostaglandin G/H synthase 1 (Homo sapiens, UniProt P23219); assay: biochemical; type: tissue-based, Platelet;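 note: inhibition of COX-1 enzyme activity, with arachidonic acid supplied as substrate; in other assays of this panel Not Active means under 50% inhibition at 10 µM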
Chain of Prostaglandin G/H synthase 1 (P23219 whole entry): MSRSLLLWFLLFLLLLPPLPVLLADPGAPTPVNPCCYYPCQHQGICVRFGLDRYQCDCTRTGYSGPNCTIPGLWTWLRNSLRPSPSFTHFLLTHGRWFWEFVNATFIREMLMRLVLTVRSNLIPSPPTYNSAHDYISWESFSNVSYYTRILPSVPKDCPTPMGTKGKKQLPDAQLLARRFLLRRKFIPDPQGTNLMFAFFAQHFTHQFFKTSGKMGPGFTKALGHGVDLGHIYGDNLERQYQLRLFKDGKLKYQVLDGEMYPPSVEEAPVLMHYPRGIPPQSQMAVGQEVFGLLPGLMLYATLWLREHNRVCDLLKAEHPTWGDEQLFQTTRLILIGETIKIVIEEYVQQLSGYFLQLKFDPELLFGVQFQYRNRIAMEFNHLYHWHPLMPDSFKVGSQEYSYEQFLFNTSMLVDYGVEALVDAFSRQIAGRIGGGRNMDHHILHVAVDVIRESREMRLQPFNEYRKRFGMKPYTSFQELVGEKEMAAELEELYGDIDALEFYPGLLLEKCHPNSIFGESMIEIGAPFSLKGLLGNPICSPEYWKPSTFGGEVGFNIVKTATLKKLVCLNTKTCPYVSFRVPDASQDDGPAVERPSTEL

D(4) dopamine receptor = target: T1, D(4) dopamine receptor (Homo sapiens, UniProt P21917); assay: DRUGMATRIX: Dopamine D4.2 radioligand binding (ligand: [3H] Spiperone); type: cell membranes, CHO-K1, Membrane; details: cho-k1; Not Active = under 50% inhibition at 10 µM
T1 sequence (P21917 whole entry): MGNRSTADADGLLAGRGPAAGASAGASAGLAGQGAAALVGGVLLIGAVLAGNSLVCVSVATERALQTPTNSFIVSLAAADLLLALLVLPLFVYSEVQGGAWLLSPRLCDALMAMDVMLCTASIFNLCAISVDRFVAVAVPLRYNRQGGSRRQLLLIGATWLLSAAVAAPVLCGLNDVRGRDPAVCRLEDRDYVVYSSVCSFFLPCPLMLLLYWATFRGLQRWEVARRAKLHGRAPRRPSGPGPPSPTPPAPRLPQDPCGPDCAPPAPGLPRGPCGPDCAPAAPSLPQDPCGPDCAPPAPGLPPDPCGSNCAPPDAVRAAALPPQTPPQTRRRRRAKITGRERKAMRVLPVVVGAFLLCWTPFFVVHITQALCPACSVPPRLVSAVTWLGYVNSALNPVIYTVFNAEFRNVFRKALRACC

[2] = DRUGMATRIX: Phosphodiesterase PDE4 enzyme inhibition (substrate: [3H]cAMP + cAMP); details: u-937, Not Active = under 50% inhibition at 10 µM
Caspase-1 = target: T2, Caspase-1 (Homo sapiens, UniProt P29466); set-up: species or system Escherichia coli;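 note: Caspase-1 enzyme inhibition assay with a peptide substrate; in other assays of this panel Not Active means under 50% inhibition at 10 µM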
T2 sequence (P29466 whole entry): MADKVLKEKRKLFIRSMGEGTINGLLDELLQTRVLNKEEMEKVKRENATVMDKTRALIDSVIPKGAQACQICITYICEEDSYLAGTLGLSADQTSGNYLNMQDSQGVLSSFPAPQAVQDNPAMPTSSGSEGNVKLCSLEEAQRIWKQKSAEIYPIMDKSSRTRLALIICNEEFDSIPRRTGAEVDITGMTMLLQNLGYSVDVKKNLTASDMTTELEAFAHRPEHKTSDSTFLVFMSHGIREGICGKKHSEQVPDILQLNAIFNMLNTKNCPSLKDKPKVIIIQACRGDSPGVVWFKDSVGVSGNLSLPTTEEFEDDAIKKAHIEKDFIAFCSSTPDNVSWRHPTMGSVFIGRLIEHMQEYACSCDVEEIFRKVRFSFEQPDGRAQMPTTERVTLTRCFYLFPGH

[3] = target: Protein kinase C alpha type (Homo sapiens, UniProt P17252); type: cell-based; details: sf9;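 note: inhibition of PKCalpha kinase activity measured in an enzyme assay with histone as the phosphorylation substrate; in other assays of this panel Not Active means under 50% inhibition at 10 µM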
[4] = target: Protein phosphatase 3 catalytic subunit alpha (Homo sapiens, UniProt Q08209); set-up: species or system Escherichia coli
[5] = target: Receptor tyrosine-protein kinase erbB-2 (Homo sapiens, UniProt P04626); assay: biochemical; type: cell-based, Insect cells
Chain of Receptor tyrosine-protein kinase erbB-2 (P04626 whole entry): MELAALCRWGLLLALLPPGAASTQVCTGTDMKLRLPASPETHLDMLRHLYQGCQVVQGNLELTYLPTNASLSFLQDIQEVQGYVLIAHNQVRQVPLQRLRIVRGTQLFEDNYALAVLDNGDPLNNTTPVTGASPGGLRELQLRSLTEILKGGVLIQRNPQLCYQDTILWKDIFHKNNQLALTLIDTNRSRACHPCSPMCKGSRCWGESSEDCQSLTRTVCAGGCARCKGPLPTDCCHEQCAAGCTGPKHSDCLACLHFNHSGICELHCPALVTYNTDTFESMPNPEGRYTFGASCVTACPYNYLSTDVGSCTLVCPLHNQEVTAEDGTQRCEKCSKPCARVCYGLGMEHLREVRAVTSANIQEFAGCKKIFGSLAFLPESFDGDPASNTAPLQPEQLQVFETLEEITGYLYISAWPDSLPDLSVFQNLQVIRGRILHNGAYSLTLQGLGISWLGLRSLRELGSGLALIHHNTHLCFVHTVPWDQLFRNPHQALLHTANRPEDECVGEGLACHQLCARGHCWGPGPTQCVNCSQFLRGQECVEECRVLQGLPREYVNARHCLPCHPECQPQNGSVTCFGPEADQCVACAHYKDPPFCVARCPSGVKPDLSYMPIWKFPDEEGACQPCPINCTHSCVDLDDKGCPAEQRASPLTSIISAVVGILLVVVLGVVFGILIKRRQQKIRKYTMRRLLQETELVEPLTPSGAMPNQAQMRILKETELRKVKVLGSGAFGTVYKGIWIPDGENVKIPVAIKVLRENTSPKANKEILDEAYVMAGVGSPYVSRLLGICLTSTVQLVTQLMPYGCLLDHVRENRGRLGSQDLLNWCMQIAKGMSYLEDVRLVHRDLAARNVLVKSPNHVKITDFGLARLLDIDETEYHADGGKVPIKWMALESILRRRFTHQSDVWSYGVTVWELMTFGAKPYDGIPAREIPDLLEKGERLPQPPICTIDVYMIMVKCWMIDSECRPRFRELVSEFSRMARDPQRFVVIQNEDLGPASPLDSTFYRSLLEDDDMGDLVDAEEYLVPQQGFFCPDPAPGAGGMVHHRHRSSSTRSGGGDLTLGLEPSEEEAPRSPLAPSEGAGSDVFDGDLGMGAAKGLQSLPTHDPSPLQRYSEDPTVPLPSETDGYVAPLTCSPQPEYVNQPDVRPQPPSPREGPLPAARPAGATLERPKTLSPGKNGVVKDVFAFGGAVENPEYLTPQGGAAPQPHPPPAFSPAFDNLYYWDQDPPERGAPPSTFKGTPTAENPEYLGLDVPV

Chain of Vasopressin V1a receptor (P37288 whole entry): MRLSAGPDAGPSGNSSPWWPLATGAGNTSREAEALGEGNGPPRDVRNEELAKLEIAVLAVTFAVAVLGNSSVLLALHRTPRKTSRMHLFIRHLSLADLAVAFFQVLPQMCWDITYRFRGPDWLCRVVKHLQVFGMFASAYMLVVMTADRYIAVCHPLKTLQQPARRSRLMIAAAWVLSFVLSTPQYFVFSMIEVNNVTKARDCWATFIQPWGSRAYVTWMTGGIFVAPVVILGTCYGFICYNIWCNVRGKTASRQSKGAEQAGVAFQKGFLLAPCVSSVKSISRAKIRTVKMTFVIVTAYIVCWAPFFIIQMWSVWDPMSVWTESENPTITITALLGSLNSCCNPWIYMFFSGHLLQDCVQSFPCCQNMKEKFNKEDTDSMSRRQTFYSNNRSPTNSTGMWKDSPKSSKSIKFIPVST

Row | Structure (SMILES) | IC50 (Vasopressin V1a receptor) | IC50 ([1]; platelet) | IC50 (D(4) dopamine receptor) | IC50 [2] | Ki [2] | IC50 (Caspase-1) | IC50 [3] | IC50 [4] | IC50 ([5]; insect cells) | IC50 ([2]; read-out: IC50) | IC50 ([1]; read-out: IC50) | IC50 ([5]; read-out: IC50)
1 | Nn1nnc2ccccc21 | Not Active | Not Active | Not Active | Not Active | Not Active | Not Active | Not Active | Not Active | Not Active |  |  | 
2 | CC[C@]1(O)CC[C@H]2[C@@H]3CCC4=CCCC[C@@H]4[C@H]3CC[C@@]21C | Not Active | Not Active | Not Active | Not Active | Not Active | Not Active | Not Active | Not Active | Not Active |  |  | 
3 | N[C@@H](Cc1ccc(F)cc1)C(=O)O | Not Active | Not Active | Not Active | Not Active | Not Active | Not Active | Not Active | Not Active | Not Active |  |  | 
4 | CCOC(=O)[C@H](CCc1ccccc1)N[C@@H](C)C(=O)N1Cc2ccccc2C[C@H]1C(=O)O | Not Active | Not Active | Not Active | Not Active | Not Active | Not Active | Not Active | Not Active | Not Active |  |  | 
5 | O=C(c1ccccc1Cl)N1CCC(Cc2ccccc2)CC1 | Not Active | Not Active | Not Active | Not Active | Not Active | Not Active | Not Active | Not Active | Not Active |  |  | 
6 | CCOC(=O)[C@H](CCc1ccccc1)N[C@@H](C)C(=O)N1CCC[C@H]1C(=O)O | Not Active | Not Active | Not Active | Not Active | Not Active | Not Active | Not Active | Not Active | Not Active |  |  | 
7 | Clc1cc2c(cc1Cl)Oc1cc(Cl)c(Cl)cc1O2 [2,3,7,8-TETRACHLORODIBENZO-P-DIOXIN] | Not Active | Not Active | Not Active | Not Active | Not Active | Not Active | Not Active | Not Active | Not Active |  |  | 
8 | C=C1/C(=C\C=C2/CCC[C@]3(C)[C@@H]([C@H](C)CCCC(C)C)CC[C@@H]23)C[C@@H](O)C[C@@H]1O [ALFACALCIDOL] | Not Active | Not Active | Not Active | Not Active | Not Active | Not Active | Not Active | Not Active | Not Active |  |  | 
9 | CCCCCC[C@H]1C(=O)O[C@H](C)[C@H](NC(=O)c2cccc(NC=O)c2O)C(=O)O[C@@H](C)[C@@H]1OC(=O)CC(C)C [ANTIMYCIN A] | Not Active | Not Active | Not Active | Not Active | Not Active | Not Active | Not Active | Not Active | Not Active |  |  | 
10 | C[C@@H]1CC[C@H]2[C@@H](C)C(=O)O[C@@H]3O[C@@]4(C)CC[C@@H]1[C@]32OO4 [ARTEMISININ] | Not Active | Not Active | Not Active | Not Active | Not Active | Not Active | Not Active | Not Active | Not Active |  |  | 
11 | CO[C@H]1[C@@H](O)[C@H](N)[C@@H](O[C@H]2O[C@H]([C@H](C)N)CC[C@H]2N)[C@H](O)[C@@H]1N(C)C(=O)CN [ASTROMICIN] | Not Active | Not Active | Not Active | Not Active | Not Active | Not Active | Not Active | Not Active | Not Active |  |  | 
12 | [N-]=[N+]=CC(=O)OC[C@H](N)C(=O)O [AZASERINE] | Not Active | Not Active | Not Active | Not Active | Not Active | Not Active | Not Active | Not Active | Not Active |  |  | 
13 | CC[C@H]1OC(=O)[C@H](C)[C@@H](O[C@H]2C[C@@](C)(OC)[C@@H](O)[C@H](C)O2)[C@H](C)[C@@H](O[C@@H]2O[C@H](C)C[C@H](N(C)C)[C@H]2O)[C@](C)(O)C[C@@H](C)CN(C)[C@H](C)[C@@H](O)[C@]1(C)O [AZITHROMYCIN] | Not Active | Not Active | Not Active | Not Active | Not Active | Not Active | Not Active | Not Active | Not Active |  |  | 
14 | CC(C)(C)c1ccc(S(=O)(=O)/C=C/C#N)cc1 [BAY-11-7085] | Not Active | Not Active | Not Active | Not Active | Not Active | Not Active | Not Active | Not Active | Not Active |  |  | 
15 | CCc1oc2ccccc2c1C(=O)c1cc(Br)c(O)c(Br)c1 [BENZBROMARONE] | Not Active | Not Active | Not Active |  |  | Not Active | Not Active | Not Active | Not Active | 1060 nM |  | 
16 | O=c1cc(-c2ccccc2)oc2ccc3ccccc3c12 [BETA-NAPHTHOFLAVONE] | Not Active | Not Active | Not Active | Not Active | Not Active | Not Active | Not Active | Not Active | Not Active |  |  | 
17 | CC(C)C[C@H]1C(=O)N2CCC[C@H]2[C@]2(O)O[C@](NC(=O)[C@@H]3C=C4c5cccc6[nH]c(Br)c(c56)C[C@H]4N(C)C3)(C(C)C)C(=O)N12 [BROMOCRIPTINE] | Not Active | Not Active | Not Active | Not Active | Not Active | Not Active | Not Active | Not Active | Not Active |  |  | 
18 | CS(=O)(=O)OCCCCOS(C)(=O)=O [BUSULFAN] | Not Active | Not Active | Not Active | Not Active | Not Active | Not Active | Not Active | Not Active | Not Active |  |  | 
19 | O=C(/C=C/c1ccc(O)c(O)c1)OCCc1ccccc1 [CAFFEIC ACID PHENETHYL ESTER] | Not Active |  | Not Active | Not Active | Not Active | Not Active | Not Active | Not Active |  |  | 833 nM | 1330 nM
20 | COc1cc(CNC(=O)CCCC/C=C/C(C)C)ccc1O [CAPSAICIN] | Not Active |  | Not Active | Not Active | Not Active | Not Active | Not Active | Not Active | Not Active |  | 1550 nM | 
21 | NC(=O)N1c2ccccc2C=Cc2ccccc21 [CARBAMAZEPINE] | Not Active | Not Active | Not Active | Not Active | Not Active | Not Active | Not Active | Not Active | Not Active |  |  | 
22 | CCOC(=O)n1ccn(C)c1=S [CARBIMAZOLE] | Not Active | Not Active | Not Active | Not Active | Not Active | Not Active | Not Active | Not Active | Not Active |  |  | 
23 | Oc1ccccc1O [CATECHOL] | Not Active | Not Active | Not Active | Not Active | Not Active | Not Active | Not Active | Not Active | Not Active |  |  | 
24 | C[C@H](C(=O)O)c1cccc(C(=O)c2ccccc2)c1 [DEXKETOPROFEN] | Not Active |  | Not Active | Not Active | Not Active | Not Active | Not Active | Not Active | Not Active |  |  | 
25 | CC(C(=O)O)c1ccc(-c2ccccc2)c(F)c1 (centres undefined) [FLURBIPROFEN] | Not Active |  | Not Active | Not Active | Not Active | Not Active | Not Active | Not Active | Not Active |  |  | 
26 | Cc1cnc(C(=O)NCCc2ccc(S(=O)(=O)NC(=O)NC3CCCCC3)cc2)cn1 [GLIPIZIDE] | Not Active | Not Active | Not Active | Not Active | Not Active |  | Not Active |  | Not Active |  |  | 
